Experimental data reported in patent US4585741A, “Method of assay for vitamin D metabolites” (priority 1983, dated 1986).

Columns and labels:
[1] = tested on: monoclonal antibody B2B4, raised in mice against bovine serum albumin-derivatized calcitroic acid; conditions: for concentration displacing half of the reversibly bound 3H-1,25-(OH)2 D3: monoclonal antibody b2b4, 18 h
Protocol: (§1) Monoclonal antibodies binding calcitroic acid were detected in culture supernatants by a radioimmunoassay in which supernatants were exposed to microtiter plates coated with a calcitroic acid-egg albumin conjugate.
Radioligand was added after 1 hr pre-incubation in displacement assays; otherwise it was added immediately. […] Alternatively, 20 λ of a partially purified preparation of carrier mouse IgG was added to the assay mixture. Then 40 λ of purified preparation of rabbit antimouse IgG was added and the mixture incubated for 4 hours at 4° C. […] After centrifugation at 1000×g for 20 minutes, the supernatants were aspirated, the pellets suspended in Budget Solve (Research Products International, Mount Prospect, Ill.) and their radioactivity determined in a Beckman 7000 Scintillation Counter (Beckman Instruments Company, Palo Alto, Calif.).
For sucrose density gradient analysis, 350 λ of assay mixture or supernatant after immunoprecipitation was layered on a linear 5-20% sucrose gradient and centrifuged at 100,000×g for 17 hours. Molecular markers, human gamma globulin (16 mg/ml assay buffer) (Calbiochem-Behring, La Jolla, Calif.) and BSA (12 mg/ml assay buffer) were centrifuged identically. Fractions were collected through a bottom puncture apparatus and their radioactivity assayed.

[2] = tested on: monoclonal antibody B3A1, raised in mice against bovine serum albumin-derivatized calcitroic acid
Protocol: Bound tracer is separated from free by second antibody precipitation.
as §1
Radioligand was added after 1 hr pre-incubation in displacement assays; otherwise it was added immediately. After incubation for 18 hours, 10λ of rabbit anti-mouse Fab' (unrestricted gift of Dr. Judith Kapp-Pierce, Department of Pathology, Jewish Hospital of St. Louis and Washington University School of Medicine) was added with carrier mouse IgG and tubes were incubated for another 45 minutes at 4°. Alternatively, 20 λ of a partially purified preparation of carrier mouse IgG was added to the assay mixture. Then 40 λ of purified preparation of rabbit antimouse IgG was added and the mixture incubated for 4 hours at 4° C. […] After centrifugation at 1000×g for 20 minutes, the supernatants were aspirated, the pellets suspended in Budget Solve (Research Products International, Mount Prospect, Ill.) and their radioactivity determined in a Beckman 7000 Scintillation Counter (Beckman Instruments Company, Palo Alto, Calif.).

In the case of C=C1/C(=C\C=C2/CCC[C@]3(C)[C@@H]([C@H](C)CCCC(C)(C)O)CC[C@@H]23)C[C@@H](O)C[C@@H]1O [1,25-(OH)2 D3, 1,25-dihydroxycholecalciferol], the “displacement of radioligand from B2B4 (sucrose gradient)” value ([1]; 1 ng/ml of 1,25-(OH)2 D3 added prior to centrifugation, data not shown) is reported as “almost completely displaced”.

In the case of C=C1CC[C@H](O)C/C1=C/C=C1\CCC[C@]2(C)[C@@H]([C@H](C)CCC(O)C(C)(C)O)CC[C@@H]12 (stereo partly drawn) [24,25-(OH)2 D3, 24,25-dihydroxycholecalciferol], the “concentration displacing half of the reversibly bound 3H-1,25-(OH)2 D3” value [1] is reported as 0.048 ng/mL, the “KD of calcitriol less than the KD of this analog by” value [2] is reported as “about 41/2” and the “recognition by the antibody” value ([2]; at concentrations as great as 100 ng/ml) is reported as “does not recognize”.

For C=C1CC[C@H](O)C/C1=C/C=C1\CCC[C@]2(C)[C@@H]([C@H](C)CCCC(C)(C)O)CC[C@@H]12 [25-OHD3, 25-hydroxycholecalciferol], the “concentration displacing half of the reversibly bound 3H-1,25-(OH)2 D3” value [1] was 0.068 ng/mL and the “KD of calcitriol less than the KD of this analog by” value [2] was “more than 6 orders of magnitude”.
